{"source": "patent US8937065B2", "about": "“Compositions and methods for modulating a kinase” (Clevexel Pharma, priority 2011, dated 2015)", "key": {"[1]": {"test_system": "collagen induced arthritis (CIA) in DBA/1 mice", "experiment": "Mouse collagen induced arthritis (CIA) slow-progressing disease model", "type": "in vivo", "settings": "100 mg/kg IP QD, 20 days, mild CIA model, n=10, P<0.05", "protocol": "Compounds of the invention were evaluated in mouse collagen induced arthritis (CIA) models. There are several known CIA models as outlined in the table below:\nThe CIA studies utilized a mild (slow-progressing) disease model. The DBA/1 mice developed collagen induced arthritis (CIA) after immunization with Hooke Kit™ chicken collagen/Complete Freund's Adjuvant (CFA) emulsion (EK-0210), followed by a booster dose of Hooke Kit™ chicken collagen/Incomplete Freund's Adjuvant (IFA) emulsion (EK-0211). Each study used 54 female DBA/1 mice (Taconic Farms model DBA1BO, 9 weeks old) later assigned to […] with 10 mice per group. 4 mice were not immunized nor treated, and they were left as naïve controls group for possible histological analysis. The other 50 mice were treated therapeutically.\nOne study comprises group 1—Vehicle, group 2—CP-690550, 30 mg/kg PO QD, group 3—R-788, 60 mg/kg PO QD and group 4—compound 7, 100 mg/kg, IP QD. The other study comprises group 1—Vehicle, group 2—compound 7, 15 mg/kg PO QD, group 3—compound 7, 30 mg/kg PO QD and group 4—compound 7, 100 mg/kg, IP QD.\nMice were first immunized with collagen/CFA emulsion on Day 0 after being acclimated for at least 7 days. The procedure of immunization was as follows: A mouse was immobilized using a restrainer. The tail was cleaned with 70% ethanol and the area was wiped dry with sterile gauze. […]"}, "JAK3 pathway": {"test_system": "JAK3 pathway", "experiment": "Cell based JAK3 pathway inhibition (STAT6-bla RA1 cells, IL-4 activated)", "protocol": "32 μL of the cell suspension (25,000 cells) was added to each well of a 384-well TC-Treated assay plate. Cells in Assay Media were incubated for 16-24 hours in the plate at 37° C./5% CO2 in a humidified incubator. 4 μL of a 10× serial dilution of a compound of the invention was added to appropriate wells of the plate and pre-incubated at 37° C./5% CO2 in a humidified incubator with cells for 30 minutes. 4 μL of 10× control activator IL-4 at the predetermined EC80 concentration was added to wells containing the compound of the invention. The plate was incubated for 5 hours at 37° C./5% CO2 in a humidified incubator. 8 μL of 1 μM Substrate Loading Solution was added to each well and the plate was incubated for 2 hours at room temperature. The plate was read on a fluorescence plate reader."}}}
{"smiles": "O=C(CN1CCOCC1)Nc1cccc(-c2nc(-c3c[nH]c(C(=O)N4CCCC4)c3)cs2)c1", "note": "[7A, 2-morpholino-N-(3-(4-(5-(pyrrolidine-1-carbonyl)-1H-pyrrol-3-yl)thiazol-2-yl)phenyl)acetamide]", "values": [{"measurement": "CIA score on the last day vs. combined vehicle", "setting": "[1]", "result": "reduction in CIA score"}, {"measurement": "IC50", "setting": "JAK3 pathway; STAT6-bla RA1 cells, IL-4 at EC80", "result": "110 to 1000", "unit": "nM"}, {"measurement": "Emax", "setting": "JAK3 pathway; cell based JAK3 pathway inhibition, maximal inhibition, read-out: Max % Inh", "result": 75, "unit": "%"}]}
